Reference: PubChem BioAssay (NCI)
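Exposure lasted 48 hours, with cells grown in 96-well plates and compounds tested at five concentrations. Abbreviation: GI50, concentration required for 50% inhibition of growth. TGI marks complete inhibition of growth.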

Experiments:
Assay in all cases: NCI-60 cell line screen, 48 h
SF-539 CNS = tested on: SF-539 CNS
DU-145 prostate = tested on: DU-145 prostate
UACC-257 melanoma = tested on: UACC-257 melanoma
PC-3 prostate = tested on: PC-3 prostate
MCF7 breast = tested on: MCF7 breast
EKVX NSCLC = tested on: EKVX NSCLC
SK-OV-3 ovarian = tested on: SK-OV-3 ovarian
NCI-H460 lung = tested on: NCI-H460 lung
HCT-116 colon = tested on: HCT-116 colon
TK-10 renal = tested on: TK-10 renal

O=C(O)[C@@H]1CCCCN1Cc1cc2cc3c(cc2c2cc(OCc4ccccc4)ccc12)OCO3
GI50 (SF-539 CNS): 3.87 µM | TGI (SF-539 CNS): 16.6 µM | GI50 (DU-145 prostate): 5.19 µM | TGI (DU-145 prostate): > 100 µM | GI50 (UACC-257 melanoma): 3.4 µM | TGI (UACC-257 melanoma): 12 µM | GI50 (PC-3 prostate): 16.4 µM | TGI (PC-3 prostate): 38.3 µM | GI50 (MCF7 breast): 2.05 µM | TGI (MCF7 breast): 16.5 µM | GI50 (EKVX NSCLC): 4.42 µM | TGI (EKVX NSCLC): 25.3 µM | GI50 (SK-OV-3 ovarian): 6.47 µM | TGI (SK-OV-3 ovarian): 34.3 µM | GI50 (NCI-H460 lung): 1.49 µM | TGI (NCI-H460 lung): 3.39 µM | GI50 (HCT-116 colon): 17.4 µM | TGI (HCT-116 colon): 31.1 µM | GI50 (TK-10 renal): 3.36 µM | TGI (TK-10 renal): > 100 µM

CC(C)(C)c1ccc(O)c(CN(Cc2cc(C(C)(C)C)ccc2O)c2ccccc2)c1
TGI (SF-539 CNS): 32 µM | TGI (DU-145 prostate): 38.3 µM | TGI (UACC-257 melanoma): 12.4 µM | TGI (PC-3 prostate): 42.1 µM | TGI (MCF7 breast): 38.9 µM | TGI (EKVX NSCLC): 37.1 µM | TGI (SK-OV-3 ovarian): 84.8 µM | TGI (NCI-H460 lung): 30.9 µM | TGI (HCT-116 colon): 33.9 µM | TGI (TK-10 renal): 31.5 µM

CC1(C)N=C(N)N=C(N)N1c1ccc(OCc2ccc(S(=O)(=O)F)c(Cl)c2)c(Cl)c1
GI50 (SF-539 CNS): 4.57 µM | TGI (SF-539 CNS): > 100 µM | GI50 (DU-145 prostate): 4 µM | TGI (DU-145 prostate): > 100 µM | GI50 (UACC-257 melanoma): 2.38 µM | TGI (UACC-257 melanoma): > 100 µM | GI50 (PC-3 prostate): 0.502 µM | TGI (PC-3 prostate): > 100 µM | GI50 (MCF7 breast): 0.641 µM | TGI (MCF7 breast): > 100 µM | GI50 (EKVX NSCLC): > 100 µM | TGI (EKVX NSCLC): > 100 µM | GI50 (SK-OV-3 ovarian): > 100 µM | TGI (SK-OV-3 ovarian): > 100 µM | GI50 (NCI-H460 lung): 0.426 µM | TGI (NCI-H460 lung): > 100 µM | GI50 (HCT-116 colon): 0.51 µM | TGI (HCT-116 colon): > 100 µM | GI50 (TK-10 renal): 59.2 µM | TGI (TK-10 renal): > 100 µM

CSc1nc2cc(S(=O)(=O)N3CCCCC3)ccc2s1
TGI (SF-539 CNS): > 100 µM | TGI (DU-145 prostate): > 100 µM | TGI (UACC-257 melanoma): > 100 µM | TGI (PC-3 prostate): > 100 µM | TGI (MCF7 breast): > 100 µM | TGI (EKVX NSCLC): > 100 µM | TGI (SK-OV-3 ovarian): > 100 µM | TGI (NCI-H460 lung): > 100 µM | TGI (HCT-116 colon): > 100 µM | TGI (TK-10 renal): > 100 µM

Cn1c2ccccc2c2c3[nH]c(=O)[nH]c(=O)c3c3c4ccccc4n(C)c3c21
GI50 (SF-539 CNS): 1.78 µM | TGI (SF-539 CNS): 6.61 µM | GI50 (DU-145 prostate): 1.51 µM | TGI (DU-145 prostate): > 100 µM | GI50 (UACC-257 melanoma): > 100 µM | TGI (UACC-257 melanoma): > 100 µM | GI50 (PC-3 prostate): 30.1 µM | TGI (PC-3 prostate): > 100 µM | GI50 (MCF7 breast): 1.9 µM | TGI (MCF7 breast): > 100 µM | GI50 (EKVX NSCLC): 2.54 µM | TGI (EKVX NSCLC): 47.2 µM | GI50 (SK-OV-3 ovarian): 1.75 µM | TGI (SK-OV-3 ovarian): 5.79 µM | GI50 (NCI-H460 lung): 3.09 µM | TGI (NCI-H460 lung): > 100 µM | GI50 (HCT-116 colon): 2.37 µM | TGI (HCT-116 colon): 12.9 µM | GI50 (TK-10 renal): 1.91 µM | TGI (TK-10 renal): 16.5 µM

C/C(=N\Nc1ccc(Cl)cn1)c1ccccn1
GI50 (SF-539 CNS): 0.229 µM | TGI (SF-539 CNS): 3.49 µM | GI50 (DU-145 prostate): 0.161 µM | TGI (DU-145 prostate): > 100 µM | GI50 (UACC-257 melanoma): 0.117 µM | GI50 (PC-3 prostate): 0.0464 µM | TGI (PC-3 prostate): > 100 µM | GI50 (MCF7 breast): 0.0989 µM | TGI (MCF7 breast): > 100 µM | GI50 (EKVX NSCLC): 0.0516 µM | TGI (EKVX NSCLC): > 83.7 µM | GI50 (SK-OV-3 ovarian): 0.098 µM | TGI (SK-OV-3 ovarian): 26.9 µM | GI50 (NCI-H460 lung): 0.268 µM | TGI (NCI-H460 lung): 11.2 µM | GI50 (HCT-116 colon): 0.0201 µM | TGI (HCT-116 colon): > 33.8 µM | GI50 (TK-10 renal): 2.06 µM | TGI (TK-10 renal): 97.7 µM

Cc1ccc2c3c(c(=O)[nH]c2c1)C1(C(C#N)=C(N)O3)c2cc(Br)ccc2-c2ccc(Br)cc21
GI50 (SF-539 CNS): 1.73 µM | TGI (SF-539 CNS): 3.21 µM | GI50 (DU-145 prostate): 2.98 µM | TGI (DU-145 prostate): 12.1 µM | GI50 (UACC-257 melanoma): 2.32 µM | TGI (UACC-257 melanoma): 5.24 µM | GI50 (PC-3 prostate): 1.85 µM | TGI (PC-3 prostate): 4 µM | GI50 (MCF7 breast): 2.1 µM | TGI (MCF7 breast): 5.76 µM | GI50 (EKVX NSCLC): 1.74 µM | TGI (EKVX NSCLC): 3.82 µM | GI50 (SK-OV-3 ovarian): 2.47 µM | TGI (SK-OV-3 ovarian): 6.45 µM | GI50 (NCI-H460 lung): 2.09 µM | TGI (NCI-H460 lung): 4.67 µM | GI50 (HCT-116 colon): 1.94 µM | TGI (HCT-116 colon): 4.35 µM | GI50 (TK-10 renal): 2.31 µM | TGI (TK-10 renal): 6.09 µM

COC(=O)C12C3C4C1C1C2C3C41NC(=O)c1csc([C@@H](C[C@H](C(C)C)N(C)C(=O)[C@@H](NC(=O)[C@H]2CCCCN2C)C2CC2)OC(C)=O)n1 (some centres undefined)
GI50 (SF-539 CNS): 0.00574 µM | TGI (SF-539 CNS): 0.11 µM | GI50 (DU-145 prostate): 0.00671 µM | TGI (DU-145 prostate): > 33.3 µM | GI50 (UACC-257 melanoma): > 16.6 µM | TGI (UACC-257 melanoma): > 33.3 µM | GI50 (PC-3 prostate): 0.0482 µM | TGI (PC-3 prostate): > 33.3 µM | GI50 (MCF7 breast): 0.00606 µM | TGI (MCF7 breast): > 33.3 µM | GI50 (EKVX NSCLC): 0.08 µM | TGI (EKVX NSCLC): > 33.3 µM | GI50 (SK-OV-3 ovarian): 0.148 µM | TGI (SK-OV-3 ovarian): > 33.3 µM | GI50 (NCI-H460 lung): 0.0489 µM | TGI (NCI-H460 lung): > 33.3 µM | GI50 (HCT-116 colon): 0.0123 µM | TGI (HCT-116 colon): > 33.3 µM | GI50 (TK-10 renal): 4.39 µM | TGI (TK-10 renal): > 33.3 µM
